Publication PMC8704315, “Lichen-Derived Compounds and Extracts as Biologically Active Substances with Anticancer and Neuroprotective Properties” (Pharmaceuticals, 2021)
Read-outs that look alike come from different tables or passages of the source.

Legend:
[1] = biological target: T1, COX-2 enzyme (Human recombinant) (Homo sapiens, UniProt P35354); assay: COX-2 activity assay (Cayman COX Activity Assay Kit); assay type: biochemical; details: for inhibition at 250 µg/mL: read-out: COX-2 Inhibition (%)
T1 construct: purchased Cayman 60122
T1 sequence (P35354 18-604): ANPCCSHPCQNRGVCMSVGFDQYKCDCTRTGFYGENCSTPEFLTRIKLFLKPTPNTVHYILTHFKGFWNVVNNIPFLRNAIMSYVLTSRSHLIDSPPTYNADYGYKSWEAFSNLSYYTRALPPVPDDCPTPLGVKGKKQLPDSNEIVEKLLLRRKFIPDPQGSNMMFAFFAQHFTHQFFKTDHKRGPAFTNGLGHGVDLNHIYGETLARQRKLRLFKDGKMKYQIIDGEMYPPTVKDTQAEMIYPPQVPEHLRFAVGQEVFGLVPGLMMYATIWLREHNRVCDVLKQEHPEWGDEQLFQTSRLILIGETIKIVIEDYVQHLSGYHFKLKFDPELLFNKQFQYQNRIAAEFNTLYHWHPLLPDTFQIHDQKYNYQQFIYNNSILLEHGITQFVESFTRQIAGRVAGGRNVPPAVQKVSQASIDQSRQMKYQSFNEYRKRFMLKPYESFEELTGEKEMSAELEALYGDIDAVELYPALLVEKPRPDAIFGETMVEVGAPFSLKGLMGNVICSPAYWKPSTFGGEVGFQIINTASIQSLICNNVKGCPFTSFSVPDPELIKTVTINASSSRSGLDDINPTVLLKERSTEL
Description: A volume of 0.01 mL of the studied sample, dissolved in pure DMSO to obtain 5 mg/mL, was mixed with 0.12 mL of Tris buffer (100 mM, pH 8.0), 0.01 mL hemin, shaken and left for 5 min at 25 °C followed by addition of 0.02 mL colorimetric substrate and 0.02 mL arachidonic acid solution. To start the reaction, 0.02 mL of COX-2 solution was added. The increase of absorbance during incubation at room temperature was recorded at 590 nm. Negative (blank) sample (buffer instead of studied sample) and positive sample (COX-2 inhibitor DuP-697) were run simultaneously. Background of studied samples (0.01 mL of sample mixed with 0.19 mL buffer) was also measured and included in the calculations. Each sample was run in at least 4 repeats. Inhibition of the enzyme activity was expressed in % (indicates by how many % the activity has been reduced in relation to the negative or blank sample for which the maximum activity was assumed as 100%, under the conditions used in the method). Also, inhibition of enzyme activity was expressed as acetylsalicylic acid equivalent concentration (mg/mL). For this purpose, acetylsalicylic acid solutions were prepared at 14 concentrations (0.2-10.0 mg/mL) and analyzed similarly to tested samples.

CUPRAC assay = details: concentration giving absorbance 0.5; highest 250.0 µg/mL for substances, 312.5 µg/mL for extracts; ± SEM, n = 3
AChE = AChE (Homo sapiens, UniProt P22303); assay type: biochemical; details: sample 142.9 μg/mL in the reaction mixture; note: key: -: not active
AChE, sequence (P22303 32-614): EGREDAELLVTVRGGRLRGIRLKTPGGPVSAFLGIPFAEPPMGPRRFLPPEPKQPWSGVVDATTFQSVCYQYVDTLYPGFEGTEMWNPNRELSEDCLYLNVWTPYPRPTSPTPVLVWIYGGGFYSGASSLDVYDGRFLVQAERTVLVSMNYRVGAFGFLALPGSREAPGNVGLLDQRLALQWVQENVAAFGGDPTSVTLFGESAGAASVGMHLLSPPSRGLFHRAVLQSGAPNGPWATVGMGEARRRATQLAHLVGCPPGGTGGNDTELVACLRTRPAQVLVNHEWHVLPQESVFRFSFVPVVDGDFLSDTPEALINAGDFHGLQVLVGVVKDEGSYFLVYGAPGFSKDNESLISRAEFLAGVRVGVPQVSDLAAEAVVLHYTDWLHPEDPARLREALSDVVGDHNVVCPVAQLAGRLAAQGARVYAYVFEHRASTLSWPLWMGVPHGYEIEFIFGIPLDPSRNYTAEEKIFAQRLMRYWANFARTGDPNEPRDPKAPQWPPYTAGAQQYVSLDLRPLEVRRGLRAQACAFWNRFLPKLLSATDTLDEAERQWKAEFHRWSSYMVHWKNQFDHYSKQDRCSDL
Description: Ellman’s colorimetric method was used with modifications described previously. Tested sample (10 μL) at concentration 5 mg/mL was mixed with 20 μL of AChE (or BChE) solution (0.28 U/mL) and completed after 5 min with 35 μL of ATChI (or BTCh) (1.5 mmol/L), 175 μL of 0.3 mmol/L DTNB (containing 10 mmol/L NaCl and 2 mmol/L MgCl2) and 110 μL with Tris-HCl buffer (50 mmol/L, pH 8.0). Samples containing 10 μL of Tris-HCl buffer instead of the studied sample were run in the same way (“blank” samples). The increase in the absorbance due to the spontaneous hydrolysis of the substrate was monitored using “blank” samples containing ATCh (or BTCh) and DTNB completed to 350 μL with Tris-HCl buffer. All samples were incubated at 22 °C (30 min; incubation time was determined after optimization experiments, details not shown), and the absorbance was measured (405 nm, 96-well microplate reader, Tecan Sunrise, Grödig, Austria). The “false-positive” effect of studied compounds was measured according to Rhee et al. with minor modifications, as described previously: after mixing of the substrate with the enzyme and buffer, the “false-positive” sample was left for incubation. Then, a studied sample and DTNB were added, followed by an immediate measurement of the absorbance.
Reference cholinesterase inhibitors were used for the calculations of results (eserine, neostigmine, magniflorine, rivastigmine and donepezil). For this purpose, for each compound, 16 dilutions in pure DMSO were prepared (2.57–41.14 μg/mL). These solutions (10 μL) were tested as described above and calibration curves were produced.
Each sample was analyzed in at least eight repeats, and all solutions used in a set of analyses were prepared in the same buffer. For calculations, the background of the sample (10 μL mixed with 340 μL of Tris buffer) was measured at 405 nm and subtracted during calculations. Then, the absorbance of the test sample was subtracted from the absorbance of the “blank” sample.

PAMPA-BBB permeability = assay type: in vitro ADME
Source text: To evaluate the effective permeability (Pe) of the salazinic acid, evernic acid, (−)-usnic acid as pure compounds and from the extracts (P. sulcata acetone extract, E. prunastri acetone extract, C. uncialis acetone extract, respectively), Parallel Artificial Membrane Permeability Assay (PAMPA) for the Blood-Brain Barrier (BBB) was used (Pion Inc., Billerica, MA, USA). The stock solutions of acetone extracts from C. uncialis, E. prunastri and P. sulcata and from (−)-usnic acid, evernic acid, salazinic acid, were prepared with DMSO (the concentrations of salazinic acid, evernic acid, and (−)-usnic acid reached were 2.5 mg/mL for pure compounds and extracts). Next, the donor solution was prepared (5 µL of stock solution/1000 µL of Prisma buffer, pH = 7.4 (Prisma HT, Pion Inc.). Subsequently, each filter membrane of the acceptor plate wells was coated with 5 μL BBB-1 lipid solution (Pion Inc.), and 180 µL of the donor solution was added to the donor wells. The acceptor well was filled with 200 µL BSB (Brain Sink Buffer, Pion Inc.). The plate was incubated for 1 h or 4 h at 37 °C. After incubation, the donor and acceptor concentrations of examined substances were determined using the HPLC. Effective permeability (Pe) of the compounds was calculated by using the following equation. (4) Pe=−ln(1−CA/Ceq)/S×(1/VD+1/VA)×t where Pe is the effective permeability coefficient (cm/s), VD = donor volume, VA = acceptor volume, Ceq = equilibrium concentration and Ceq=CD×VD+CA×VA/VD+VA , S = membrane area, and t = incubation time (in seconds).
Compounds with Pe (× 10^−6 cm/s) > 1.5 are classified as high permeation predicted, while Pe (× 10^−6 cm/s) < 1.5 are classified as low permeation predicted. Samples were analyzed in triplicate and the average is reported.

[2] = sample 5 mg/mL stock, 250.0 µg/mL in assay, ± SEM
[3] = pH 7.4, Pe (effective permeability, PAMPA-BBB)

Row | SMILES | inhibition at 250 µg/mL [1] [%] | Equivalent Concentration of Acetylsalicylic Acid [1, 2] [mg/mL] | CUPRAC IC0.5 (CUPRAC assay) [µg/mL] | Equivalent Reference Concentration, Donepezil, AChE (AChE) | Equivalent Reference Concentration, Eserine, AChE (AChE) | Equivalent Reference Concentration, Magniflorine, AChE (AChE) | Equivalent Reference Concentration, Neostygmine, AChE (AChE) | Equivalent Reference Concentration, Rivastigmine, AChE (AChE) | Papp at 1 h, 12.5 µg/mL (PAMPA-BBB permeability; pH 7.4, compound permeated from the acetone extract, 1 h, 37 °C, pH 7.4, ± SEM, n = 3, read-out: Pe × 10^−6 (cm/s) t = 1 h) [×10⁻⁶ cm/s] | Papp at 12.5 µg/mL (PAMPA-BBB permeability; pH 7.4, from the extract or as a pure compound, bound stated, read-out: Pe (effective permeability, PAMPA-BBB)) [×10⁻⁶ cm/s] | Papp at 1 h, 12.5 µg/mL (PAMPA-BBB permeability; pH 7.4, pure compound (PC), 1 h, 37 °C, pH 7.4, ± SEM, n = 3, read-out: Pe × 10^−6 (cm/s) t = 1 h) [×10⁻⁶ cm/s] | inhibition at 250 µg/mL [1, 2] [%] | Pe × 10^−6 (cm/s) t = 1 h (PAMPA-BBB permeability; 1 h, 12.5 µg/mL, pH 7.4) | Pe × 10^−6 (cm/s) t = 4 h (PAMPA-BBB permeability; 4 h, 12.5 µg/mL, pH 7.4) | Papp at 12.5 µg/mL (PAMPA-BBB permeability; [3]) [×10⁻⁶ cm/s] | Papp at 1 h, 12.5 µg/mL (PAMPA-BBB permeability; pH 7.4, Pe × 10^−6 (cm/s) t = 1 h) [×10⁻⁶ cm/s] | Papp at 4 h, 12.5 µg/mL (PAMPA-BBB permeability; pH 7.4, Pe × 10^−6 (cm/s) t = 4 h) [×10⁻⁶ cm/s]
1 | CC(=O)C1=C(O)C=C2Oc3c(C(C)=O)c(O)c(C)c(O)c3C2(C)C1=O (single isomer, unassigned; (-)) [(−)-Usnic acid, (−)-usnic acid] | 59.3 ± 3.5 | 12.9 ± 1.5 | >250.0 | - | - | - | - | - | 140 ± 7.3 | > 1.5 | 92.8 ± 6.3 |  |  |  |  |  | 
2 | COc1cc(C)c(C(=O)Oc2cc(C)c(C(=O)O)c(O)c2)c(O)c1 [Evernic acid, evernic acid] |  | 10.9 ± 1.8 | >250.0 | - | - | - | - | - |  |  |  | 50.7 ± 2.1 | 5.0 ± 0.7 × 10^−6 cm/s | 7.2 ± 0.4 × 10^−6 cm/s | > 1.5 | 5.2 ± 0.8 | 8.6 ± 0.4
3 | Cc1cc(O)c(C=O)c2c1C(=O)Oc1c(CO)c(O)c3c(c1O2)C(O)OC3=O (stereo not drawn) [Salazinic acid, salazinic acid] |  | 12.9 ± 0.1 | >250.0 | - | - | - | - | - |  |  |  | 60.3 ± 3 |  |  | < 0.5 |  | 
